What all share (assay type): biochemical
Test [1] concerns the target T1, HDAC7 (Homo sapiens, UniProt Q8WUI4).
T1 construct: TwinStrep-FLAG-HALO (N, cleaved yes); made in house; host or cells: HEK293/T17
T1 sequence (Q8WUI4 1-952): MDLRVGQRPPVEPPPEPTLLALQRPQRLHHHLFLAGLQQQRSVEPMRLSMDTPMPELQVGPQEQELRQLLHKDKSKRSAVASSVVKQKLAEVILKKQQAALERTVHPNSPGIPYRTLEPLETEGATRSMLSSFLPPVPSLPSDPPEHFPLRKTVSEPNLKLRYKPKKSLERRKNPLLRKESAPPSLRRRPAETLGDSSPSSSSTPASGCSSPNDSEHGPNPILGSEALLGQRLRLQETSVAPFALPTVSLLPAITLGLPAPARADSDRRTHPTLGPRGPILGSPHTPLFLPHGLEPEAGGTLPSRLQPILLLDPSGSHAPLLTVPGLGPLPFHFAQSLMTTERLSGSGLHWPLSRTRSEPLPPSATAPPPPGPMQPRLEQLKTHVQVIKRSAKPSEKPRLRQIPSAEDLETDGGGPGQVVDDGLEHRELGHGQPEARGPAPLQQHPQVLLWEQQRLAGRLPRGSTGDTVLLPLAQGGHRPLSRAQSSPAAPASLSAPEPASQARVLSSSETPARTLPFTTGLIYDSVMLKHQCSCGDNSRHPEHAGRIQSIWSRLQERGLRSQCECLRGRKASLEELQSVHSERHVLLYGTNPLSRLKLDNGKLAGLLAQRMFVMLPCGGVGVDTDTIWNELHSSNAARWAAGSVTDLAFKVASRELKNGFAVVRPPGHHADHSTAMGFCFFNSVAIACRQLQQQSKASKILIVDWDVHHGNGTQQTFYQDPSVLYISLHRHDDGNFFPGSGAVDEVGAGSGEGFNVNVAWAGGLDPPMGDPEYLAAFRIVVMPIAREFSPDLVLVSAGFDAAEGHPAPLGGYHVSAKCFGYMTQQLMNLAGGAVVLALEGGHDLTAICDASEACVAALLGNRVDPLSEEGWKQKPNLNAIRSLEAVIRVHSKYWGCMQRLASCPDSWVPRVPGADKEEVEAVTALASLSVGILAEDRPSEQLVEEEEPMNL
Description: Fluorometric HDAC inhibition assay, HDAC7. The conditions noted are these: purified human protein; Boc-[Lys-TFA]-AMC substrate 10 μM; 15 min preincubation. How it is done: (§1) Large-scale expression of recombinant human HDACs was carried out as described previously.[32],[37] Briefly, HEK293/T17 cells were transiently transfected with expression pMM222 plasmids comprising N-terminally tagged (TwinStrep-FLAG-HALO tag; Figure S1) HDAC genes using linear poly(ethyleneimine) (PEI, Polysciences Inc.). Cells were harvested three days post-transfection, and cell pellets were resuspended in the lysis buffer (100 mM Tris-HCl, 10 mM NaCl, 5 mM KCl, 2 mM MgCl2, and 10% glycerol at pH 8.0). Cells were disrupted by sonication, cell lysates were cleared by centrifugation, and soluble fusion proteins were first purified by Streptactin affinity chromatography (IBA). For all HDACs but HDACs 1, 10, and 11, the N-terminal tag was cleaved off overnight by the addition of TEV protease (10:1 HDAC/TEV ratio). Size-exclusion chromatography on a Superose 6 column (GE Healthcare Bio-Sciences; running buffer 30 mM HEPES, 140 mM NaCl, 10 mM KCl, 3% glycerol, and 0.25 mM TCEP) was used as the final purification step for all HDAC constructs.
(§2) Optimized fluorometric assays were used to determine inhibition constants of studied compounds against individual HDAC isoforms as described previously.[32] Briefly, reactions were performed in the activity buffer comprising 50 mM HEPES, 140 mM NaCl, and 10 mM KCl at pH 7.4 supplemented with 1 mg mL^–1 bovine serum albumin (BSA), 1 mM tris(2-carboxyethyl)phosphine (TCEP), 10 μM substrates, and optimized concentrations of HDACs. The Ac-Gly-Ala-[Lys-Ac]-7-amino-methylcoumarylamide (AMC) substrate was used to profile HDACs 1, 2, 3, and 6; Boc-[Lys-TFA]-7-amino-methylcoumarylamide was used for HDACs 4, 5, 7, 8, and 9 (both substrates: Bachem); fluorescein-labeled N8-acetylspermidine was used for HDAC10;[32] and an internally quenched TNFα-derived peptide derivative was used for HDAC11.[39] Deacetylation reactions were monitored either by high-performance liquid chromatography (HPLC) (HDAC10) or by quantification of released AMC (λex/λem = 365/440 nm) using a CLARIOstar plate reader (BMG Labtech GmbH).

Test [2] addresses T2, HDAC8 (Homo sapiens, UniProt Q9BY41).
T2 construct: TwinStrep-FLAG-HALO (N, cleaved yes); made in house; host or cells: HEK293/T17
T2 sequence (Q9BY41 1-377): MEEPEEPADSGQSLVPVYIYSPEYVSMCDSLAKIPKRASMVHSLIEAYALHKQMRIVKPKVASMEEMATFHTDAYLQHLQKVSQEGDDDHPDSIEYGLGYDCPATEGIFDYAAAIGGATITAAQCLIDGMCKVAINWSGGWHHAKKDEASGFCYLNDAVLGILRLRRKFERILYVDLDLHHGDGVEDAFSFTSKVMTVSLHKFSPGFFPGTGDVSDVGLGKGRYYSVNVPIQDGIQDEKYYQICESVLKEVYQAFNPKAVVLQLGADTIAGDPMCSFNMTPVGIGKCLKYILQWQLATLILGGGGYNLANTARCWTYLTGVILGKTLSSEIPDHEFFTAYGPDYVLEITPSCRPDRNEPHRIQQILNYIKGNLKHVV
Briefly: Fluorometric HDAC inhibition assay, HDAC8. The conditions noted are these: purified human protein; Boc-[Lys-TFA]-AMC substrate 10 μM; 15 min preincubation. As for the experimental part: as §1, §2

Test [3] addresses T3, HDAC3 (Homo sapiens, UniProt O15379).
T3 construct: TwinStrep-FLAG-HALO (N, cleaved yes); made in house; host or cells: HEK293/T17
Description: Fluorometric HDAC inhibition assay, HDAC3. To be noted: purified human protein; Ac-Gly-Ala-[Lys-Ac]-AMC substrate 10 μM; 15 min preincubation. How it is done:
as §1, §2

The target in test [4] is T4, HDAC11 (Homo sapiens, UniProt Q96DB2).
T4 construct: made in house; host or cells: HEK293/T17
T4 sequence (Q96DB2 1-347): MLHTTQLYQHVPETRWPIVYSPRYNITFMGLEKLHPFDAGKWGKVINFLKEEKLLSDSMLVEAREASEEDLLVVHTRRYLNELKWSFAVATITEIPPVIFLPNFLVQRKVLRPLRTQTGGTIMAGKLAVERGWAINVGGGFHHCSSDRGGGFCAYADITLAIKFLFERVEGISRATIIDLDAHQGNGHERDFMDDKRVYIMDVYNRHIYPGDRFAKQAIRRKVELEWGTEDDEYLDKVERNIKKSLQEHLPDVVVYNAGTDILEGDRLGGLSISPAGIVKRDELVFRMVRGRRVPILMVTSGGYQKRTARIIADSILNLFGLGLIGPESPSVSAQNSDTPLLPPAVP
Briefly: HDAC11 inhibition assay (internally quenched peptide). The conditions noted are these: purified human protein; internally quenched TNFα-derived peptide substrate; 15 min preincubation. How it is done: as §1, §2

Test [5] deals with T5, HDAC1 (Homo sapiens, UniProt Q13547).
T5 construct: made in house; host or cells: HEK293/T17
T5 sequence (Q13547 whole entry): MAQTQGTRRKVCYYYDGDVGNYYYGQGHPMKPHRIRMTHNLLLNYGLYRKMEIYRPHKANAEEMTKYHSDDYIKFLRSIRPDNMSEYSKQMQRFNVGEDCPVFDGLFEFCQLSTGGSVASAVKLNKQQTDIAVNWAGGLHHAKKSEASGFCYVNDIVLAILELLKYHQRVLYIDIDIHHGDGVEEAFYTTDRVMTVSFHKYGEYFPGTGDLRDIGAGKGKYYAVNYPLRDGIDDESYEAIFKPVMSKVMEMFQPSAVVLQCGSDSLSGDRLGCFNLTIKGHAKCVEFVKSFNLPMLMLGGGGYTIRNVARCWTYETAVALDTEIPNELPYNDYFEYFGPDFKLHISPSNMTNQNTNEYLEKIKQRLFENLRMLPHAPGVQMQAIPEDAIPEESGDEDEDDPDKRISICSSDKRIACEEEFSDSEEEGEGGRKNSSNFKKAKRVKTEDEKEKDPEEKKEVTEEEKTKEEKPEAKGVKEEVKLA
Briefly: Fluorometric HDAC inhibition assay, HDAC1. The conditions noted are these: purified human protein; Ac-Gly-Ala-[Lys-Ac]-AMC substrate 10 μM; 15 min preincubation. As for the experimental part: as §1, §2

Test [6] addresses T6, HDAC2 (Homo sapiens, UniProt Q92769).
T6 construct: TwinStrep-FLAG-HALO (N, cleaved yes); made in house; host or cells: HEK293/T17
Description: Fluorometric HDAC inhibition assay, HDAC2. To be noted: purified human protein; Ac-Gly-Ala-[Lys-Ac]-AMC substrate 10 μM; 15 min preincubation. How it is done: as §1, §2

Bounds are passed on as bounds.

T3 sequence (O15379 whole entry): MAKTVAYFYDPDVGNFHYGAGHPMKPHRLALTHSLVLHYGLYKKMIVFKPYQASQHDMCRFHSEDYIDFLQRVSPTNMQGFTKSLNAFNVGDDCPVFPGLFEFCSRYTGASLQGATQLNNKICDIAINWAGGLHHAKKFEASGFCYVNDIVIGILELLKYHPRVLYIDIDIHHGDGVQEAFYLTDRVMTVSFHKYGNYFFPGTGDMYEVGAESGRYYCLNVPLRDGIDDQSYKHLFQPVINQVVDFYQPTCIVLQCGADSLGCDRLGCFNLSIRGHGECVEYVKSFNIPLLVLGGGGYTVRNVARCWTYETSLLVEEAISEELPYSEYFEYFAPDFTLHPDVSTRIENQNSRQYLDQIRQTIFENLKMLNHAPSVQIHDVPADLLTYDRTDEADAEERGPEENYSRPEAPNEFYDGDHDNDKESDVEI
T3 sequence (Q9Y618 389-480 partner limits assumed): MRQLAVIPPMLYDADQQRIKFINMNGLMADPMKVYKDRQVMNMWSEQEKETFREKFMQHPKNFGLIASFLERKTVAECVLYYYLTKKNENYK
T6 sequence (Q92769 whole entry): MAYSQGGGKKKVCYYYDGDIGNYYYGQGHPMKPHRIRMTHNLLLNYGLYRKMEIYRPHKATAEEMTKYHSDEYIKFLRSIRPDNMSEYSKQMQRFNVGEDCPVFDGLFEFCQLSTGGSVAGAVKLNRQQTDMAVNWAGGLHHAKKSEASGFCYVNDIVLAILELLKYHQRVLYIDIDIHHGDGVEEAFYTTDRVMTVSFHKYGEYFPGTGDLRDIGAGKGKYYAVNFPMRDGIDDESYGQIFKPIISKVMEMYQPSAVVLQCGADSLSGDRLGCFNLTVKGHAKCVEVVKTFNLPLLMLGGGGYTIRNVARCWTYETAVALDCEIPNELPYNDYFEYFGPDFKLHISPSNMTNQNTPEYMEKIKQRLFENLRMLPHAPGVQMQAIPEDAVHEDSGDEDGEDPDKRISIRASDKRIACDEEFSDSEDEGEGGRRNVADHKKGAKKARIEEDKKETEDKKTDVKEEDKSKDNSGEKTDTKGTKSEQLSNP

For the molecule `CS(=O)(=O)N(Cc1ccc(-c2nnc(C(F)(F)F)o2)cn1)c1cccc(Cl)c1` [compound 7], the IC50 in test [1] is > 20 µM; in test [2], > 20 µM; in test [3], > 20 µM; in test [4], > 20 µM; in test [5] it was > 20 µM; in test [6] it was 17.4 µM.

Take `CS(=O)(=O)N(Cc1ccc(C(=O)NNC(=O)C(F)(F)F)cn1)c1cccc(Cl)c1` [compound 5]: the IC50 was > 20 µM in test [2], 9.17 µM in test [5] and > 20 µM in test [6].

With `CS(=O)(=O)N(Cc1ccc(-c2nnc(C(F)F)o2)cn1)c1cccc(Cl)c1` [compound 8], the IC50 in test [1], in test [2], in test [3], in test [4], in test [5] and in test [6] was > 20 µM in each case.

As to `CS(=O)(=O)N(Cc1ccc(C(=O)NN)cn1)c1cccc(Cl)c1` [compound 4], the IC50 in test [1], in test [2], in test [3], in test [4], in test [5] and in test [6] was > 20 µM each time.

For `CS(=O)(=O)N(Cc1ccc(C(=O)NNC(=O)C(F)F)cn1)c1cccc(Cl)c1` [compound 6], the IC50 in test [2] and in test [5] was > 20 µM in each case.

For the origin of these results see article PMC10367051, “Comprehensive Mechanistic View of the Hydrolysis of Oxadiazole-Based Inhibitors by Histone Deacetylase 6 (HDAC6)” (ACS Chemical Biology, 2023).
